Experimental findings from patent US10023593B2, “ALK kinase inhibitor, and preparation method and uses thereof” (BEIJING PEARL BIOTECHNOLOGY LIMITED LIABILITY COMPANY, priority 2014, dated 2018) are described below.

The target in assay [1] is T1, L1196M mutant ALK kinase (Homo sapiens, UniProt Q9UM73, L1196M).
T1 construct: purchased Sino-US Crown Bioscience, Inc. batch number ALKm_20110923
In words: HTRF KinEASE-TK assay, inhibitory activity on L1196M mutant ALK kinase. It is filed as biochemical. The following applies: L1196M mutant ALK 1 ng/μl, substrate 1 μM, ATP 5 μM, 30° C. 35 minutes, read-out: Inhibition on ALK kinases (L1196M mutant), IC50. The method in brief:
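HTRF TK assay: mutant kinase 1 ng/μl, substrate 1 μM, ATP 5 μM, 5 mM MgCl2, 1 mM DTT, 1% DMSO, 35 min at 30 °C. 665/615 ratio read; inhibition normalised to no-compound and 10.4 μM LDK-378 controls; IC50 from curve fit.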
Background: Time-resolved FRET reads energy transfer from a long-lived donor to a nearby acceptor.

The test system of assay [2] is Karpas-299 cell line. In words: CellTiter-Glo cell proliferation inhibition on Karpas-299 cell line. The format is cell-based. To be noted: Homo sapiens, 96 h, Karpas-299 cells, 5000 cells/well, 4 days drug treatment. In outline:
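Karpas-299 cells (5000/well, RPMI-1640 + 10% FBS) pre-incubated 2 h at 37 °C, then treated with compound (0.5% DMSO final) for 4 days. Viability read by CellTiter-Glo luminescence; inhibition calculated against DMSO control, IC50 fitted.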

T1 sequence (Q9UM73 19-1620 L1196M): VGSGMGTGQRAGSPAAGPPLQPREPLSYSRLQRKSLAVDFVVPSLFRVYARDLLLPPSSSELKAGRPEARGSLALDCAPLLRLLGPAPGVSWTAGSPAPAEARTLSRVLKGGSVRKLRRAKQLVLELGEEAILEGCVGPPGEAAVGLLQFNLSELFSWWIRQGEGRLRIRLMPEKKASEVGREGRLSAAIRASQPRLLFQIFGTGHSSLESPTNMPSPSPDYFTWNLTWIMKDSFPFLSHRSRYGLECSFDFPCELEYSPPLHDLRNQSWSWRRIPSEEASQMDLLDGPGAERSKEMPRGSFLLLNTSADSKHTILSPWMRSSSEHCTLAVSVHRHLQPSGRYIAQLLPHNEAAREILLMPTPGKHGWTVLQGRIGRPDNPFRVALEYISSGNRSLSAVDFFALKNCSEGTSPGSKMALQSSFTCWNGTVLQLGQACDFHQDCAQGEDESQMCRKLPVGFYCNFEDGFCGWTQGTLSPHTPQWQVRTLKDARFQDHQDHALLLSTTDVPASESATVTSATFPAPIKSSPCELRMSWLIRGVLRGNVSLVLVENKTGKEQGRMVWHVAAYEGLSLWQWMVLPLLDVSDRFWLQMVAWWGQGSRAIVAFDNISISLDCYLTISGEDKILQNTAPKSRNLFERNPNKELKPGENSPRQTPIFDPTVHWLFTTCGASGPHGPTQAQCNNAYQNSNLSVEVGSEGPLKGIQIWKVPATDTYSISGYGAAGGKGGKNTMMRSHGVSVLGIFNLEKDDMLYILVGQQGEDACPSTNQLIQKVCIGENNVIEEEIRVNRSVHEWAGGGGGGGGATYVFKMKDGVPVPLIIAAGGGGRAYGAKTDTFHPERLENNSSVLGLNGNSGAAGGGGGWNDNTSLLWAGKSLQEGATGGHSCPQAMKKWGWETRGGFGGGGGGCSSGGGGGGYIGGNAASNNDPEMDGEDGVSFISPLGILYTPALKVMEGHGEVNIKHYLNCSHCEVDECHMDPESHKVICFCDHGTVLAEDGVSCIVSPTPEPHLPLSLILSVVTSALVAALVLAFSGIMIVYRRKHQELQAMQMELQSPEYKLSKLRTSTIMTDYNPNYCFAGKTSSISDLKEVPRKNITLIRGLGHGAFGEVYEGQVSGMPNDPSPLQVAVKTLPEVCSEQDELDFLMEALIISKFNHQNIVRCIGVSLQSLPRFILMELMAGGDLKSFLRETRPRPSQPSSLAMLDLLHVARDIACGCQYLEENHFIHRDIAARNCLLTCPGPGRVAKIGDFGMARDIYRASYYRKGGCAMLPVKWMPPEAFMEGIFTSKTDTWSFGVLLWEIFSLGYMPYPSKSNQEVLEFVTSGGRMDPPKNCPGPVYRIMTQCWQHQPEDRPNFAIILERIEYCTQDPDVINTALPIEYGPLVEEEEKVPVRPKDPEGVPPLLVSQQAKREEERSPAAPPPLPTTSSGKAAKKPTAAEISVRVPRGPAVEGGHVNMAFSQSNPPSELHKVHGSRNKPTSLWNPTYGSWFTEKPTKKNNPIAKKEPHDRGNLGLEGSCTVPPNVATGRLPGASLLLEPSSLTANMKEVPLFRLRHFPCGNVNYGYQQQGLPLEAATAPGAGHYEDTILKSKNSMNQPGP

As for `CC(C)CS(=O)(=O)c1nn(C)cc1Nc1nc(Nc2ccc(C3CCN(C)CC3)cc2OC2CC2)ncc1Cl` [Final product 43], the results for the IC50 in assay [1] and in assay [2] were 0.012 µM and 0.026 µM, respectively.
Taken in the same sequence, the figures for `Cc1cc(Nc2ncc(Cl)c(Nc3cn(C)nc3S(=O)(=O)C(C)C)n2)c(OC2CC2)cc1C1CCN(S(C)(=O)=O)CC1` [Final product 167, 5-chloro-N^2-(2-cyclopropoxy-5-methyl-4-(1-methanesulfonyl-piperidin-4-yl)-phenyl)-N^4-(3-(isopropylsulfonyl)-1-methyl-1H-pyrazol-4-yl)pyrimidin-2,4-diamine] were 0.011 µM and 0.018 µM.
For `Cc1cc(Nc2ncc(Cl)c(Nc3cn(C)nc3S(=O)(=O)CC(C)C)n2)c(OC2CC2)cc1C1CCN(C(C)C)CC1` [Final product 127], the values for the IC50 in assay [1] and in assay [2] were 0.012 µM and 0.03 µM, respectively.
Take `CC(C)S(=O)(=O)c1nn(C2CC2)cc1Nc1nc(Nc2cc(Cl)c(C3CCNCC3)cc2OC2CC2)ncc1Cl` [Final product 23]: the IC50 (as a rule, the concentration that gives 50% inhibition) worked out at 0.008 µM in assay [1] and 0.038 µM in assay [2].
For `CC(C)S(=O)(=O)c1nn(C)cc1Nc1nc(Nc2ccc(C3CCNC3)cc2OC2CC2)ncc1Cl` (centres unmarked) [Final product 15], in that order: 0.005 µM and 0.009 µM.
As to `Cc1cc(Nc2ncc(Cl)c(Nc3cn(C)nc3S(=O)(=O)C(C)C)n2)c(OC2CCC2)cc1C1CCN(CCO)CC1` [Final product 138], the IC50 in assay [1] is 0.008 µM; in assay [2], 0.006 µM.
Consider `CC(C)S(=O)(=O)c1nn(C)cc1Nc1nc(Nc2ccc(C3CCN(C)CC3)cc2OC(F)(F)F)ncc1Cl` [Final product 30], for which the IC50 in assay [1] stood at 0.018 µM; in assay [2], 0.025 µM.
In the case of `CC(C)S(=O)(=O)c1nn(C2CC2)cc1Nc1nc(Nc2ccc(C3CCN(C)CC3)cc2OC(F)(F)F)ncc1Cl` [Final product 38], the values for the half-inhibitory concentration (IC50) in assay [1] and in assay [2] were 0.018 µM and 0.022 µM, respectively.
With `CC(C)S(=O)(=O)c1nn(C)cc1Nc1nc(Nc2ccc(C3CCN(C)CC3)cc2OC2CC2)ncc1Cl` [Final product 40], the IC50 came to 0.005 µM in assay [1] and 0.007 µM in assay [2].
For `Cc1cc(Nc2ncc(Cl)c(Nc3cn(C)nc3S(=O)(=O)C(C)C)n2)c(OC2CC2)cc1[C@H]1CC[C@@H](N(C)C)CC1` [Final product 189], in that order: 0.007 µM and 0.006 µM.
On to `Cc1cc(Nc2ncc(Cl)c(Nc3cn(C)nc3S(=O)(=O)C(C)C)n2)c(OC(C)C)cc1C1CNC1` [Final product 4], for which the IC50 in assay [1] was determined as 0.013 µM; in assay [2], 0.06 µM.
For `Cc1cc(Nc2ncc(Cl)c(Nc3cn(C)nc3S(=O)(=O)C(C)C)n2)c(OC2CC2)cc1C1CCN(CCO)CC1` [Final product 133, 2-(4-(4-(5-chloro-4-(3-(isopropylsulfonyl)-1-methyl-1H-pyrazol-4-amino)pyrimidin-2-amino)-5-cyclopropoxy-2-methylphenyl)piperidin-1-yl) ethanol], the IC50 in assay [1] was 0.006 µM; in assay [2], 0.004 µM.
Taken in the same sequence, the figures for `Cc1cc(Nc2ncc(Cl)c(Nc3cn(C)nc3S(=O)(=O)C(C)C)n2)c(OCC2CC2)cc1C1CCNCC1` [Final product 12] were 0.017 µM and 0.043 µM.
`Cc1cc(Nc2ncc(Cl)c(Nc3cn(C)nc3S(=O)(=O)C(C)C)n2)c(OC2CC2)cc1C1CCOCC1` [Final product 107]: the results for the IC50 in assay [1] and in assay [2] were 0.019 µM and 0.018 µM, respectively.
As to `Cc1cc(Nc2ncc(Cl)c(Nc3cn(C)nc3S(=O)(=O)CC(C)C)n2)c(OC(C)C)cc1C1CN(C)C1` [Final product 36], the results for the IC50 in assay [1] and in assay [2] were 0.015 µM and 0.062 µM, respectively.
Taken in the same sequence, the figures for `Cc1cc(Nc2ncc(Cl)c(Nc3cn(C)nc3S(=O)(=O)C(C)C)n2)c(OC2CC2)cc1C1=CCN(C)CC1` [Final product 50] were 0.007 µM and 0.011 µM.
Taken in the same sequence, the figures for `Cc1cc(Nc2ncc(Cl)c(Nc3cn(C)nc3S(=O)(=O)C(C)C)n2)c(OC(F)(F)F)cc1C1CCNCC1` [Final product 10] were 0.013 µM and 0.02 µM.
Taken in the same sequence, the figures for `CC(C)S(=O)(=O)c1nn(C)cc1Nc1nc(Nc2ccc(C3CCN(S(C)(=O)=O)C3)cc2OC2CC2)ncc1Cl` (centres unmarked) [Final product 172] were 0.009 µM and 0.017 µM.
Consider `Cc1cc(Nc2ncc(Cl)c(Nc3cn(C)nc3S(=O)(=O)C(C)C)n2)c(OC2CC2)cc1C1CCNC1` (centres unmarked) [Final product 26], for which the 50% inhibitory concentration (IC50) amounted to 0.006 µM in assay [1] and 0.016 µM in assay [2].
On to `CC(C)S(=O)(=O)c1nn(C2CC2)cc1Nc1nc(Nc2ccc(C3CCN(S(C)(=O)=O)CC3)cc2OC2CC2)ncc1Cl` [Final product 173], for which the half-maximal inhibitory concentration (IC50) in assay [1] turned out to be 0.028 µM; in assay [2], 0.019 µM.
Consider `Cc1cc(Nc2ncc(Cl)c(Nc3cn(C4CC4)nc3S(=O)(=O)C(C)C)n2)c(OC2CC2)cc1C1CCNCC1` [Final product 27], for which the IC50 in assay [1] stood at 0.006 µM; in assay [2] it was 0.019 µM.
As to `Cc1cc(Nc2ncc(Cl)c(Nc3cn(C)nc3S(=O)(=O)CC(C)C)n2)c(OC2CC2)cc1C1CCN(CCO)CC1` [Final product 137], the 50% inhibitory concentration (IC50) in assay [1] amounted to 0.011 µM; in assay [2], 0.012 µM.
For `Cc1cc(Nc2ncc(Cl)c(Nc3cn(C)nc3S(=O)(=O)C(C)C)n2)c(C(F)(F)F)cc1C1CCN(C)CC1` [Final product 32], in that order: 0.049 µM and 0.074 µM.
Taken in the same sequence, the figures for `CC(C)S(=O)(=O)c1nn(C)cc1Nc1nc(Nc2cc(Cl)c(C3CCNCC3)cc2OC2CC2)ncc1Cl` [Final product 22] were 0.012 µM and 0.014 µM.
Taken in the same sequence, the figures for `Cc1cc(Nc2ncc(Cl)c(Nc3cn(C)nc3S(=O)(=O)CC(C)C)n2)c(OC2CC2)cc1C1CCNCC1` [Final product 28] were 0.015 µM and 0.019 µM.
As for `CC(C)S(=O)(=O)c1nn(C)cc1Nc1nc(Nc2cc(C#N)c(C3CCN(C)CC3)cc2OC2CC2)ncc1Cl` [Final product 49], the results for the IC50 in assay [1] and in assay [2] were 0.013 µM and 0.1 µM, respectively.
For the compound `Cc1cc(Nc2ncc(Cl)c(Nc3cn(C)nc3S(=O)(=O)C(C)C)n2)c(OCC2CC2)cc1C1CCN(C)CC1` [Final product 39], the IC50 in assay [1] is 0.048 µM; in assay [2], 0.074 µM.
For `Cc1cc(Nc2ncc(Cl)c(Nc3cn(C)nc3S(=O)(=O)C(C)C)n2)c(OC(F)(F)F)cc1C1CCN(C)CC1` [Final product 31], in that order: 0.01 µM and 0.02 µM.
For `Cc1cc(Nc2ncc(Cl)c(Nc3cn(C)nc3S(=O)(=O)C(C)C)n2)c(OC2CC2)cc1C1CCN(C2COC2)CC1` [Final product 156], in that order: 0.01 µM and 0.019 µM.
For `Cc1cc(Nc2ncc(Cl)c(Nc3cn(C)nc3S(=O)(=O)C(C)C)n2)c(OC2CC2)cc1C1CN(S(C)(=O)=O)C1` [Final product 170], in that order: 0.095 µM and 0.086 µM.
`Cc1cc(Nc2ncc(Cl)c(Nc3cn(C)nc3S(=O)(=O)C(C)C)n2)c(OC2CC2)cc1[C@H]1CC[C@H](NC2CC2)CC1` [Final product 196]: the IC50 in assay [1] stood at 0.018 µM; in assay [2], 0.009 µM.
Taken in the same sequence, the figures for `CC(C)S(=O)(=O)c1nn(C)cc1Nc1nc(Nc2cc(Cl)c(C3CCN(C)CC3)cc2OC2CC2)ncc1Cl` [Final product 47] were 0.01 µM and 0.015 µM.
On to `CC(C)S(=O)(=O)c1nn(C)cc1Nc1nc(Nc2cc(F)c(C3CCNC3)cc2OC2CC2)ncc1Cl` (centres unmarked) [Final product 20], for which the values for the IC50 in assay [1] and in assay [2] were 0.034 µM and 0.056 µM, respectively.
Taken in the same sequence, the figures for `CC(C)S(=O)(=O)c1nn(C2CC2)cc1Nc1nc(Nc2ccc(C3CCNCC3)cc2OC2CC2)ncc1Cl` [Final product 16] were 0.007 µM and 0.008 µM.
Consider `Cc1cc(Nc2ncc(Cl)c(Nc3cn(C)nc3S(=O)(=O)C(C)C)n2)c(OC2CC2)cc1C1CCN(C=O)CC1` [Final product 159, 4-(4-(5-chloro-4-(3-(isopropylsulfonyl)-1-methyl-1H-pyrazol-4-amino)pyrimidin-2-amino)-5-cyclopropoxy-2-methylphenyl)piperidin-1-formaldehyde], for which the IC50 came out at 0.009 µM in assay [1] and 0.011 µM in assay [2].
As for `Cc1cc(Nc2ncc(Cl)c(Nc3cn(C)nc3S(=O)(=O)C(C)C)n2)c(OC2CC2)cc1C1CCN(C(=O)C(F)(F)F)CC1` [Final product 161, 1-trifluoroacetyl-4-(4-(5-chloro-4-(3-(isopropylsulfonyl)-1-methyl-1H-pyrazol-4-amino)pyrimidin-2-amine)-5-cyclopropoxy-2-methylphenyl)piperidine], the IC50 in assay [1] came out at 0.043 µM; in assay [2], 0.027 µM.
For the compound `Cc1cc(Nc2ncc(Cl)c(Nc3cn(C)nc3S(=O)(=O)C(C)C)n2)c(OC2CC2)cc1C1CC(C)N(C)C(C)C1` (centres unmarked) [Final product 95], the IC50 in assay [1] is 0.003 µM; in assay [2], 0.004 µM.
Taken in the same sequence, the figures for `CC(C)S(=O)(=O)c1nn(C)cc1Nc1nc(Nc2ccc(C3CCN(C)C3)cc2OC2CC2)ncc1Cl` (centres unmarked) [Final product 41] were 0.003 µM and 0.004 µM.
For `CC(C)CS(=O)(=O)c1nn(C)cc1Nc1nc(Nc2ccc(C3CCNCC3)cc2OC2CC2)ncc1Cl` [Final product 17], in that order: 0.013 µM and 0.036 µM.
Taken in the same sequence, the figures for `CC(C)S(=O)(=O)c1nn(C)cc1Nc1nc(Nc2ccc(C3CCNCC3)cc2OC2CC2)ncc1Cl` [Final product 13] were 0.007 µM and 0.007 µM.
